By inhibition is commonly meant the relative decrease from the control value, in per cent. As a reminder, the Ki is the equilibrium dissociation constant of an inhibitor or competing ligand from its target. One may read the IC50 as the concentration that inhibits the measured activity by half. A high value points to weaker potency.

For assay [1], the target named is D(2) dopamine receptor (Homo sapiens) (UniProt P14416). To be noted: Compound concentration 10.0 uM.
The target in assay [2] is Kappa-type opioid receptor (Homo sapiens) (UniProt P41145). To be noted: Compound concentration 10.0 uM.
Chain of Kappa-type opioid receptor (Homo sapiens) (P41145 whole entry): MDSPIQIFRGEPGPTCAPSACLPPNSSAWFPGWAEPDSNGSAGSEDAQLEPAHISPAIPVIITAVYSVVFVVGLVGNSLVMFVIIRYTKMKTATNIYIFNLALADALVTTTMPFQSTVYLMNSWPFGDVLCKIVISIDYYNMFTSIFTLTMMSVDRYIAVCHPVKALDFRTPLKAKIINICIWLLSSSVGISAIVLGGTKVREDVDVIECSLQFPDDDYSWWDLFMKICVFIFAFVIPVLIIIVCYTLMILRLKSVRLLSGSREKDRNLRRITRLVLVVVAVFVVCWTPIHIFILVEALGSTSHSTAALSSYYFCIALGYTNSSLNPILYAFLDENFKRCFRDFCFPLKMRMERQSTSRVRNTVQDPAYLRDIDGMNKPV
In assay [3] the target is T1, Peroxisome proliferator-activated receptor gamma (Homo sapiens) (UniProt P37231).
T1 sequence (whole entry): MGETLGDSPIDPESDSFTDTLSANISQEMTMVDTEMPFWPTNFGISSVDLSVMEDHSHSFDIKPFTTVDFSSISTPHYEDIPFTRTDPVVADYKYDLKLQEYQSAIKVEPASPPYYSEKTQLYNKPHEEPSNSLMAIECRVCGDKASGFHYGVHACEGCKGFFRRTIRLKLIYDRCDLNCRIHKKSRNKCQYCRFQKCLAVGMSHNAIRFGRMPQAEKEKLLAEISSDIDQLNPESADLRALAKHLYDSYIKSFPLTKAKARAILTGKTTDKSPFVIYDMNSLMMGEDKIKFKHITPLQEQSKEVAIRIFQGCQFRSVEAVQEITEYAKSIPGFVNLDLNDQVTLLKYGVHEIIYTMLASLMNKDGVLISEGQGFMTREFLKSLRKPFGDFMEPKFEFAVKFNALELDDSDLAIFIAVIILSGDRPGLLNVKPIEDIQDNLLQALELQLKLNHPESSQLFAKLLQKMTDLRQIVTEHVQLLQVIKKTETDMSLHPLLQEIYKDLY
As to the kind of experiment: PPARgamma Indigo Bioscience nuclear receptor screen.

In assay [4] the target is Beta-2 adrenergic receptor (Homo sapiens) (UniProt P07550). To be noted: Compound concentration 10.0 uM.
Chain of Beta-2 adrenergic receptor (Homo sapiens) (P07550 whole entry, looked up): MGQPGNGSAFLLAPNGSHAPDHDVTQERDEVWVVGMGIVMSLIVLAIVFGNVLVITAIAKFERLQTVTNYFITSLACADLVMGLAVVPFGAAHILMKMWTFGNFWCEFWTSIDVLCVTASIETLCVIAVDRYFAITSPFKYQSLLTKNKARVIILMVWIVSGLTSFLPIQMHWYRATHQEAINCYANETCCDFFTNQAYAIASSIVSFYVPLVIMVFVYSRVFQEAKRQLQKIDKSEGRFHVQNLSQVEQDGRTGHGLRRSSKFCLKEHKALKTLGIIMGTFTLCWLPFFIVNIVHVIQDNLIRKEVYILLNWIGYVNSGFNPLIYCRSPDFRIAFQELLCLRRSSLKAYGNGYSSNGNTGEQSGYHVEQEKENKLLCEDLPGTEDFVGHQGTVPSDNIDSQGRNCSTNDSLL
The target in assay [5] is Serotonin 3 (5-HT3) receptor (Homo sapiens) (UniProt P46098+A5X5Y0+O95264+Q70Z44+Q8WXA8). As to the kind of experiment: 5-HT3 (h) CEREP screen. Type of assay: protein-complex assay. To be noted: Compound concentration 10.0 uM.
The target in assay [6] is Adenosine receptor A3 (Homo sapiens) (UniProt P0DMS8). As to the kind of experiment: A3 (h) CEREP screen.
Chain of Adenosine receptor A3 (Homo sapiens) (P0DMS8 whole entry): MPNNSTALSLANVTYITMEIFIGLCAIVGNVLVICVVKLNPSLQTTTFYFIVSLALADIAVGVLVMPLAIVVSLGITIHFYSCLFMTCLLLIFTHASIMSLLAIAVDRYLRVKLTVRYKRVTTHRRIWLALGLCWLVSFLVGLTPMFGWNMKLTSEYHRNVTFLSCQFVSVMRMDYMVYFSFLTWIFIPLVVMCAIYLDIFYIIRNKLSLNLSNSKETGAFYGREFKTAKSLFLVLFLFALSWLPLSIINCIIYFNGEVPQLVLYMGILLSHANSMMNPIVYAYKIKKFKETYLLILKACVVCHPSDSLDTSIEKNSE
Assay [7] deals with 5-hydroxytryptamine receptor 2C (Homo sapiens) (UniProt P28335). To be noted: Compound concentration 10.0 uM.
Chain of 5-hydroxytryptamine receptor 2C (Homo sapiens) (P28335 whole entry): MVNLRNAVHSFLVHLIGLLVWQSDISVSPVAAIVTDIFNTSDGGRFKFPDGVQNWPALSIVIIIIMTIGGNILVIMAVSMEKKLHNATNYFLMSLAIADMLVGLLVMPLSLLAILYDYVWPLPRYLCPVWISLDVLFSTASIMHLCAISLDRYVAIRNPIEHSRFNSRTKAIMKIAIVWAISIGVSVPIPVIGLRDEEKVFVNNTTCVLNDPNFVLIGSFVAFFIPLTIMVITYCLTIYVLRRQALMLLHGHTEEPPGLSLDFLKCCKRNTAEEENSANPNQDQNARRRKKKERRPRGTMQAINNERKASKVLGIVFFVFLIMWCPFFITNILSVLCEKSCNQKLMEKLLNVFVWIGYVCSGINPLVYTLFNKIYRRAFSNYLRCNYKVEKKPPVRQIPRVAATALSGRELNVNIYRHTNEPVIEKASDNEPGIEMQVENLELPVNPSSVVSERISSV
In assay [8] the target is RAC-alpha serine/threonine-protein kinase (Homo sapiens) (UniProt P31749). Briefly: PKBalpha Invitrogen kinase panel. To be noted: Compound concentration 10.0 uM.
Chain of RAC-alpha serine/threonine-protein kinase (Homo sapiens) (P31749 whole entry): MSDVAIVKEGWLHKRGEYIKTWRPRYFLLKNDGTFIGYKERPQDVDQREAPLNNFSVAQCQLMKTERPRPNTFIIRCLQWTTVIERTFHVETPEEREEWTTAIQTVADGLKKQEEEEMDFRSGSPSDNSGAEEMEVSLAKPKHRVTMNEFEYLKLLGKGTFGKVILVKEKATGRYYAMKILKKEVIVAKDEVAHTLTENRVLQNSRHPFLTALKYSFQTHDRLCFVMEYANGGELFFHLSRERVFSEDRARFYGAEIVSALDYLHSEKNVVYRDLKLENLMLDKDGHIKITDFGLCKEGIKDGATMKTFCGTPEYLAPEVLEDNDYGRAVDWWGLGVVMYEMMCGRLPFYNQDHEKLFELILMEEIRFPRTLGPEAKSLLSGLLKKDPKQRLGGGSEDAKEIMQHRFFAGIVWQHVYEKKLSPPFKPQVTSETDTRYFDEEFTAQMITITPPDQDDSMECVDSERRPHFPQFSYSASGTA
The target of assay [9] is 5-hydroxytryptamine receptor 2B (Homo sapiens) (UniProt P41595). To be noted: Compound concentration 10.0 uM.
Chain of 5-hydroxytryptamine receptor 2B (Homo sapiens) (P41595 whole entry): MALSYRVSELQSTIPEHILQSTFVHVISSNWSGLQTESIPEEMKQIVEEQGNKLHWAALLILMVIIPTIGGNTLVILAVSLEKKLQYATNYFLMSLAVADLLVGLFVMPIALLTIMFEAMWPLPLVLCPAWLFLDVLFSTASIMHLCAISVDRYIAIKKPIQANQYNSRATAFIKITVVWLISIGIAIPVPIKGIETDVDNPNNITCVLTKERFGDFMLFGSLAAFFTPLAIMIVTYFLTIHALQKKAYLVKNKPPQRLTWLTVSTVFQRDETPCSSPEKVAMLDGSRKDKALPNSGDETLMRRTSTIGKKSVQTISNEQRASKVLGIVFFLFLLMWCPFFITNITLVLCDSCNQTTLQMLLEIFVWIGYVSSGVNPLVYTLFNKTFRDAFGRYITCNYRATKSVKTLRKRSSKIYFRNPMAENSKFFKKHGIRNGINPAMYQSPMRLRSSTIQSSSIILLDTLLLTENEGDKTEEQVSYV
Assay [10] has as its target Serine/threonine-protein kinase pim-2 (Homo sapiens) (UniProt Q9P1W9). As to the kind of experiment: Pim2 Invitrogen kinase panel. To be noted: Compound concentration 10.0 uM.
Assay [11] has as its target T2, Muscarinic acetylcholine receptor M1 (Homo sapiens) (UniProt P11229).
T2 sequence (whole entry): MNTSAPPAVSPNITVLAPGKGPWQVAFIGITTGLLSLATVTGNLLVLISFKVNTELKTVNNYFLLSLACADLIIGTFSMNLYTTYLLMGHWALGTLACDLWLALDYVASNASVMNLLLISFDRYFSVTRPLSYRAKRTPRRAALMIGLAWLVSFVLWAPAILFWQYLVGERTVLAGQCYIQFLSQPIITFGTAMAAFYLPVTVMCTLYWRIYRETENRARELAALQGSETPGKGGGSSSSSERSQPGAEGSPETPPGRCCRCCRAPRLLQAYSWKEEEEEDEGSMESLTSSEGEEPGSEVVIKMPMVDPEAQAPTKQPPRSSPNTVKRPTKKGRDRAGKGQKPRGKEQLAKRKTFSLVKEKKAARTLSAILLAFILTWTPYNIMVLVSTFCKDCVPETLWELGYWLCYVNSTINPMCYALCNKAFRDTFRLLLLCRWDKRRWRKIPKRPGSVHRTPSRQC
Conditions: Compound concentration 10.0 uM.

Assay [12] has as its target Alpha-2B adrenergic receptor (Homo sapiens, UniProt P18089). Briefly: GPCRScan assay: inhibition of Alpha2B. On the set-up: radioligand conc. used [nm] 1.5 – 2.0, parental cells HEKT.
For assay [13], the target named is D(2) dopamine receptor (Homo sapiens) (UniProt P14416). As to the kind of experiment: D2S (h) CEREP screen. To be noted: Compound concentration 1.0 uM.
Assay [14] concerns the target Peroxisome proliferator-activated receptor delta (Homo sapiens, UniProt Q03181). Briefly: (§1) PPARdelta In-house nuclear receptor screen.
The target in assay [15] is T3, Peroxisome proliferator-activated receptor delta (Homo sapiens) (UniProt Q03181).
T3 sequence (whole entry): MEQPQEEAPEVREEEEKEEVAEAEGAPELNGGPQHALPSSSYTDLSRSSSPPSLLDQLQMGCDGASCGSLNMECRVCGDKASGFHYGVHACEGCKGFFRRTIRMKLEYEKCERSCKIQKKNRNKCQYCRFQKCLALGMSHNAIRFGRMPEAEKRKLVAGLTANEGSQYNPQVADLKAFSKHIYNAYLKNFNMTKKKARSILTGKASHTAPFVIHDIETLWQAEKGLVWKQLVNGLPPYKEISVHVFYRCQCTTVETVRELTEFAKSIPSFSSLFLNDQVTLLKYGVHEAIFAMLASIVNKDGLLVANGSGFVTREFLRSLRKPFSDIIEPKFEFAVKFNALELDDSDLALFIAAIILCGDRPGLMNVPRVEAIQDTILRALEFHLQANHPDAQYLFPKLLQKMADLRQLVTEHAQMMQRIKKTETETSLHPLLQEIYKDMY
The assay is described as §1. Conditions: Compound concentration 3.0 uM.

In assay [16] the target is cAMP-dependent protein kinase catalytic subunit alpha (Homo sapiens) (UniProt P17612). Briefly: PKA Invitrogen kinase panel. To be noted: Compound concentration 10.0 uM.
Assay [17] deals with T4, Estrogen receptor (Homo sapiens) (UniProt P03372).
T4 sequence (whole entry): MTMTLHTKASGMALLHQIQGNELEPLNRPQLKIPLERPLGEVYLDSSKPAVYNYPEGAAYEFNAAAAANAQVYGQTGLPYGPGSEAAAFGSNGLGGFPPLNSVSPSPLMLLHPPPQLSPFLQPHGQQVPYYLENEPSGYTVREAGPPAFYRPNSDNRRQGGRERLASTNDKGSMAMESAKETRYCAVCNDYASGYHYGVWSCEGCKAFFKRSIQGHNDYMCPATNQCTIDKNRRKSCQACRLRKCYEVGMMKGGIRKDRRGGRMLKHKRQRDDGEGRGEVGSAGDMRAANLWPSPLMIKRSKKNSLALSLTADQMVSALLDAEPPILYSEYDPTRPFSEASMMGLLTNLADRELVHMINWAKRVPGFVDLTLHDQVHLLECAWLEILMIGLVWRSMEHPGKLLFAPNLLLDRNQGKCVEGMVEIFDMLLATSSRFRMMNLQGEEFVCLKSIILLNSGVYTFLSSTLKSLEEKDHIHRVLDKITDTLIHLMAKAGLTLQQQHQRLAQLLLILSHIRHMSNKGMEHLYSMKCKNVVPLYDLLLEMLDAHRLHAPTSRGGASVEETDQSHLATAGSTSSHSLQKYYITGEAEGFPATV
As to the kind of experiment: ERalpha Indigo Bioscience nuclear receptor screen.

Assay [18] addresses Aurora kinase A (Homo sapiens) (UniProt O14965). As to the kind of experiment: Aurora_A Invitrogen kinase panel. To be noted: Compound concentration 10.0 uM.
Assay [19] concerns the target Nuclear receptor ROR-beta (Homo sapiens) (UniProt Q92753). Briefly: ThermoFluor Binding Assay (RORB). (In DSF a fluorescence change marks the thermal transition of the protein.)

Chain of D(2) dopamine receptor (Homo sapiens) (P14416 whole entry): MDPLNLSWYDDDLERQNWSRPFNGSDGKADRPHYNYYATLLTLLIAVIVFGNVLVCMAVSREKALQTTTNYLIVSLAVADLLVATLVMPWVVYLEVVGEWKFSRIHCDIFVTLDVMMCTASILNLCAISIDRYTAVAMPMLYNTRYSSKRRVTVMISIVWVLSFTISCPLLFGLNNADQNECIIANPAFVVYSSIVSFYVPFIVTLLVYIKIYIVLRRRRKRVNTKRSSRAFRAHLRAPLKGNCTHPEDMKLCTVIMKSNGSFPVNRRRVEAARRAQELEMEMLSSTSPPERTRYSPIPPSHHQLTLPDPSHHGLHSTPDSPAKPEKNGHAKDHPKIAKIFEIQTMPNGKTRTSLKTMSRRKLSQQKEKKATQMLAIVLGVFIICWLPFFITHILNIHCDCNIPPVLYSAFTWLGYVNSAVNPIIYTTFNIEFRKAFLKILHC
Chain of Aurora kinase A (Homo sapiens) (O14965 whole entry): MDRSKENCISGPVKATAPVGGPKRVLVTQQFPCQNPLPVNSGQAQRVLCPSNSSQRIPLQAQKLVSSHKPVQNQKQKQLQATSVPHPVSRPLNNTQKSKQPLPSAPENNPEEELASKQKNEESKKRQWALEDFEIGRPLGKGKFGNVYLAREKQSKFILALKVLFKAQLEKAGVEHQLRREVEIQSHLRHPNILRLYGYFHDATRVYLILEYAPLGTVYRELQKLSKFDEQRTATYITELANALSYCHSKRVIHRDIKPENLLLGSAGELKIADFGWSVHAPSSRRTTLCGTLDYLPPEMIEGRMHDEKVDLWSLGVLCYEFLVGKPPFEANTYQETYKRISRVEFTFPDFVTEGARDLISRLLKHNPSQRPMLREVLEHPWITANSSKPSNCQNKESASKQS
Chain of Alpha-2B adrenergic receptor (P18089 whole entry): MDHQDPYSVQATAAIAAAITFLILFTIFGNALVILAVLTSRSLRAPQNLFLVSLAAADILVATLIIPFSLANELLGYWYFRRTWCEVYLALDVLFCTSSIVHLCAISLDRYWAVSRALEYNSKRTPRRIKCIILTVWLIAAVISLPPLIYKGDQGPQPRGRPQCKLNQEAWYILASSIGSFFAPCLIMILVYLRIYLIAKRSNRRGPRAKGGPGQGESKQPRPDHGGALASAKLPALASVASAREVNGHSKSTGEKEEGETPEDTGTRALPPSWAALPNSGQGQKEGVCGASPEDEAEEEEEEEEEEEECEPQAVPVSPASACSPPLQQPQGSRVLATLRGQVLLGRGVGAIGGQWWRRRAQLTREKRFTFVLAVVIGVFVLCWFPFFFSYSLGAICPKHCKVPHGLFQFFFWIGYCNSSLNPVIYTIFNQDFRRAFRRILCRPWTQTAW
Chain of Nuclear receptor ROR-beta (Homo sapiens) (Q92753 whole entry): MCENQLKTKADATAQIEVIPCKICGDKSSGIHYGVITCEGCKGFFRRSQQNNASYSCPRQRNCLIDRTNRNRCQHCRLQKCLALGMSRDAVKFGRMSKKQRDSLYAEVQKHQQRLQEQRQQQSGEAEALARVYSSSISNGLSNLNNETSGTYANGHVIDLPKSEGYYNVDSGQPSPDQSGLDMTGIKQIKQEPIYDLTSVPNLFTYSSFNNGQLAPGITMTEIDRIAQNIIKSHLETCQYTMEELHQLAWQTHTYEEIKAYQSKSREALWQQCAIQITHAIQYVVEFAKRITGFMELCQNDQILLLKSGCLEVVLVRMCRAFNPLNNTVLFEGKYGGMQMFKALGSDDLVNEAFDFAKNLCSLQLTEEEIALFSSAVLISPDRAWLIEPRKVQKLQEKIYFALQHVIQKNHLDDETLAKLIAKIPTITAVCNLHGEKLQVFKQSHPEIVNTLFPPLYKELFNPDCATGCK
Chain of Serine/threonine-protein kinase pim-2 (Homo sapiens) (Q9P1W9 whole entry, looked up): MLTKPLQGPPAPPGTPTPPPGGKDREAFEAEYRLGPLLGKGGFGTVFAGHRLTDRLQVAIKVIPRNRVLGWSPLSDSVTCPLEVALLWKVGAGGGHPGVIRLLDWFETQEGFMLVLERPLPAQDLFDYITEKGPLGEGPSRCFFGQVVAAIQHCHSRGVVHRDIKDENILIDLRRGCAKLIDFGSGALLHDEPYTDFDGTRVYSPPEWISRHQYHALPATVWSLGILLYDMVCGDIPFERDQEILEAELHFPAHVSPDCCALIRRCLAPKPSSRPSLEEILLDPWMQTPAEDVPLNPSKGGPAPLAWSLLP

With `COc1nc2ccc([C@@](O)(c3ccccc3)C3CCN(C(C)=O)CC3)cc2c(Cl)c1Cc1ccc(-n2cccn2)cc1` [JNJ-54119936], the inhibition in [1] is 12.5%; in assay [2], -6%; in [3] (Compound concentration 0.3 uM) it was -0.894%; in [3] (Compound concentration 3.0 uM), -6.01%; in assay [4], 15.6%; in assay [5], 18%. The inhibition is 45% in assay [6] (Compound concentration 1.0 uM); 25% in assay [6] (Compound concentration 10.0 uM); 21.2% in assay [7]; -5% in assay [8]; 18.7% in assay [9]; 1% in [10]. The inhibition was 5.4% in [11]; 10% in [13]; 37.3% in assay [15]; 1% in [16]; -1.2% in assay [17] (Compound concentration 0.3 uM); 0.61% in assay [17] (Compound concentration 1.0 uM). Moreover, the inhibition in [17] (Compound concentration 3.0 uM) was -3.01%; in assay [18], 9%. For the same compound, in assay [12], the Ki is 9.22 µM. The 50% inhibitory concentration (IC50) in [14] turned out to be 5.9 µM. In assay [19], the qKD is over 75 µM.

The record behind these values is ChEMBL document CHEMBL4800728, “Data for DCP probe JNJ-54119936” (2021).
